Data published in patent publication US20240150839A1, “METHODS FOR PREDICTING RESPONSIVENESS OF PROSTATE CANCER PATIENTS TO PARP INHIBITORS” (Memorial Sloan Kettering Cancer Center, priority 2019, published 2024).

Experiments:
Assay type in all cases: cell-based, human
[1] = test system: BRCA2 SMARTpool siRNA-transfected LNCaP cells; assay: MTT cell growth of BRCA2 siRNA-transfected LNCaP cells with enzalutamide; details: BRCA2 siRNA LNCaP vs scrambled siRNA; ENZ 20 μM, 96 hours post transfection (FIG. 7G)
Procedure: Cells infected with scrambled (scr) gRNA were used as control. Equal amount of proteins was loaded in WedgeWell 6% gel and western blot was performed. ˜400 kDa BRCA2 band is indicated by arrow. GAPDH served as loading controls for western blot and qPCR. […] Genotypes are detected by PCR amplification followed by being treated with T7 endonuclease. Wt and mutant BRCA2 are indicated by red and green arrows, respectively. […] Equivalent volume of DMSO was used as placebo treatment. Cell growth was measured by MTT assay (see Example 1); SD, P-values determined by Student's t-test. *P<0.05, **P<0.01, ***P<0.001. […] Cell growth was measured by crystal violet staining assay (see Example 1) (±SD); P-values determined by Student's t-test. […] Cell growth was measured by MTT assay (see Example 1) (±SD); P-values determined by Student's t-test. […] Total RNA was isolated, and BRCA2 mRNA was analyzed by qPCR. […] Cell growth was measured by MTT assay; SD, P-values determined by Student's t-test. […]
(§1) Cell Proliferation Assay by MTT, BrdU and Crystal Violet. […] MTT crystals were dissolved in isopropanol and absorbance was measured in a BioTek plate reader at […] and represented graphically.

[2] = test system: BRCA2 SMARTpool siRNA-transfected LAPC4 cells; assay: MTT cell growth of BRCA2 siRNA-transfected LAPC4 cells with enzalutamide; details: BRCA2 siRNA LAPC4 vs scrambled siRNA; ENZ 20 μM, 72 hours after transfection (FIG. 1F)
Procedure: Cells infected with scrambled (scr) gRNA were used as a negative control. Cas9 and RHoGDI served as loading controls. […] Nuclei were stained with DAPI (blue). […] P-values were determined by Student's t-test. ***P<0.001. […] Equivalent volume of DMSO was used as placebo treatment. Cell growth was measured by BRDU incorporation assay (see Example 1) (±SD); P-values were determined by Student's t-test.***P<0.001. […] Parental LAPC4 cells were transiently transfected with BRCA2-specific SMARTpool siRNA for 96 hours. Total RNA was isolated, and BRCA2 mRNA was analyzed by qPCR. Scrambled SMARTpool siRNA-transfected cells were used as control (top). BRCA2- or scrambled SMARTpool siRNA-transfected LAPC4 cells were cultured in charcoal-stripped medium (CSS) or complete medium supplemented with enzalutamide (ENZ; 20 μM) for 72 hours after transfection (bottom). Equivalent volume of DMSO was used as placebo treatment. Cell growth was measured by MTT assay; SD, p-values were determined by Student's t-test. […] Control and CRISPR-edited LNCaP cells (10^3 cells/well) were mixed with Matrigel, and 3D cell cultures (organoids) were grown for 7 days in androgen-depleted, growth factor-enriched media. […]
as §1

BRCA2-null LNCaP cells [3] = assay: Cell growth (BrdU, crystal violet, MTT) of BRCA2 CRISPR-edited LNCaP cells with enzalutamide; details: BRCA2-null LNCaP vs scr control; complete medium, 7 days (FIGS. 1E, 7D, 7F)
Procedure: Cells infected with scrambled (scr) gRNA were used as a negative control. Cas9 and RHoGDI served as loading controls. […] Nuclei were stained with DAPI (blue). […] P-values were determined by Student's t-test. ***P<0.001. […] Equivalent volume of DMSO was used as placebo treatment. Cell growth was measured by BRDU incorporation assay (see Example 1) (±SD); P-values were determined by Student's t-test.***P<0.001. […] Parental LAPC4 cells were transiently transfected with BRCA2-specific SMARTpool siRNA for 96 hours. Total RNA was isolated, and BRCA2 mRNA was analyzed by qPCR. Scrambled SMARTpool siRNA-transfected cells were used as control (top). […] Cell growth was measured by MTT assay; SD, p-values were determined by Student's t-test. […]
Cells infected with scrambled (scr) gRNA were used as control. […] Genotypes are detected by PCR amplification followed by being treated with T7 endonuclease. […] Cell growth was measured by MTT assay (see Example 1); SD, P-values determined by Student's t-test. *P<0.05, **P<0.01, ***P<0.001. […] Cell growth was measured by crystal violet staining assay (see Example 1) (±SD); P-values determined by Student's t-test. […] Cell growth was measured by MTT assay (see Example 1) (±SD); P-values determined by Student's t-test. […] Total RNA was isolated, and BRCA2 mRNA was analyzed by qPCR. […] Cell growth was measured by MTT assay; SD, P-values determined by Student's t-test. […]

MSK-PCa3 organoid = assay: MTT growth of mCRPC organoids with PARPi; details: compared to benign organoid; 3 days (FIG. 6E)
Description: (§2) Near-diploid benign prostate organoid is used as a control. […] GAPDH served as the loading control. […] The graphs show cell growth measured by MTT assay (±SD); P-trends determined by 2-way ANOVA.
(§3) Cell Culture. Human prostate cancer cells LNCaP, 22RV1, DU145, PC3, and VCaP were obtained from ATCC (Manassas, VA). LNCaP-C42 cells were obtained from VitroMed (Burlington, NC). The LNCaP-Abl cell line, E006AA-T cells, PC3M LAPC4 cell line were obtained. These cells were maintained in 10% FBS (LNCaP, LNCaP-C42, LAPC4, VCaP, 22RV1, DU145, PC3, PC3M, and E006AA) or 10% charcoal-stripped serum (LNCaP-Abl) supplemented with 2 mM of L-glutamine and 1×antibiotic/antimycotic (Gemini Bio-Products, Sacramento, CA) at 37° C. in 5% CO2. Human prostate epithelial cell RWPE1 was obtained from ATCC and cultured in keratinocyte serum-free medium (Thermo Fisher Scientific, Waltham, MA) at 37° C. in 5% CO2. Cells were authenticated by human short tandem repeat profiling at the MSK Integrated Genomics Operation Core. Patient-derived human prostate cancer organoids were cultured as described. Gao et al., Cell 159:176-87 (2014).
(§4) Cell Proliferation Assay by MTT, BrdU and Crystal Violet. For MTT assay, cells were plated at 2.5×10^3 per well in 96-well plates in complete media (10% FBS) or media supplemented with 10% charcoal-stripped serum. Cells were either treated with DMSO or with indicated inhibitors. After indicated times, cells were incubated in 0.5 mg/mL MTT (Invitrogen) for 1 hour at 37° C. MTT crystals were dissolved in isopropanol and absorbance was measured in a BioTek plate reader at […] and represented graphically.

MSK-PCa1 organoid = assay: MTT growth of mCRPC organoids with PARPi; details: compared to benign organoid; 3 days (FIG. 6E)
Description: as §2, §3, §4

BRCA2-null RWPE1 cells = assay: MTT cell growth with olaparib; details: BRCA2-null vs control RWPE1; 3 μM and 10 μM olaparib, 7 days (FIG. 3G)
Procedure: Scr-CRISPR and BRCA2-CRISPR2 cells were also transfected with non-targeting shRNA (scr-Sh) for control of shRNA. GAPDH served as the loading control. […] Nuclei were stained with DAPI (blue). […] Control cells were transfected with empty vector. […] GAPDH served as the loading control. […] LNCaP cells were used as control. GAPDH served as the loading control. […] Nuclei were stained with DAPI (blue). […] Equivalent volume of DMSO was used as placebo treatment. Cell growth was measured by MTT assay; SD, P-values determined by Student's t-test. […] LNCaP-BRCA2-RB1 or control cells were incubated in charcoal-stripped medium (CSS) for 24 hours followed by treatment with 1 nM R1881 for another 48 hours (in CSS). […] After 24 hours, cells in the lower side of the chamber were fixed, stained, photographed in 100× magnification (top panel), and counted and represented in the form of the bar graph (bottom panel). P-values were determined by Student's t-test.
(§5) To generate BRCA2 knockout RWPE1 cells, BRCA2 gRNA2 was cloned into LentiCRISPRv2-GFP backbone which constitutively expresses Cas9 and GFP. Lentiviral infected cells were selected by FACS sorting for GFP positive cells (twice) and analyzed by western blot. […] Loss of BRCA2 in the pooled populations of LNCaP cells was analyzed by western blot using BRCA2-specific antibodies and this pooled population of cells was used for the following experiments. […]

[4] = test system: RB1 knockdown LNCaP cells; assay: MTT cell growth with PARP inhibitors; details: RB1 knockdown vs control LNCaP cells; olaparib 3 μM, talazoparib 0.005 μM (FIG. 2E)
Procedure: (§6) Scr-CRISPR and BRCA2-CRISPR2 cells were also transfected with non-targeting shRNA (scr-Sh) for control of shRNA. RHoGDI served as the loading control. […] Equivalent volume of DMSO was used as placebo treatment. Cell growth was measured by MTT assay; SD, p-values were determined by Student's t-test. […] FIG. 2C (2nd and 3rd rows) show the immunofluorescence (400× magnification) of F-actin filament stained with phalloidin in indicated CRISPR/shRNA-infected LNCaP cells. Nuclei were stained with DAPI (blue). […] 5×10^3 indicated cells were plated on the top of Boyden chamber (see Example 1) in serum-free media; 10% serum in the bottom chamber was used as chemo-attractant. After 48 hours, cells in the lower side of the chamber were fixed, stained, and photographed (100× magnification). […] Nuclei were stained with DAPI (blue). […] The graphs show cell growth measured by MTT assay (±SD); P-values determined by Student's t-test. […] RNA sequencing was analyzed by Partek.
(§7) To generate BRCA2-RB1 knockout-knockdown LNCaP cells, parental LNCaP cells were first infected with lentivirus containing BRCA2 gRNA or scr gRNA. Pooled population of the stable cells were established by puromycin selection and analyzed by western blot and qPCR. BRCA2-knockout or scr LNCaP cells were infected with lentivirus containing RB1 shRNA followed by hygromycin selection. BRCA2-knockout or scr (gRNA) LNCaP cells also infected with lentiviral non-targeting shRNA (scr-shRNA) were used as control. Cells within 4-10 passages after stable selection were used for the following experiments.
as §4

LNCaP-BRCA2-RB1 cells = assay: MTT cell growth with PARP inhibitors; details: LNCaP-BRCA2-RB1 vs BRCA2-null LNCaP; olaparib 3 μM, talazoparib 0.005 μM (FIG. 2E)
Procedure: as §6, §7, §4

BRCA2-null LNCaP cells [5] = assay: MTT cell growth of BRCA2 CRISPR-edited LNCaP cells with PARP inhibitors or cisplatin; details: BRCA2 knockout LNCaP vs control gRNA (scr) cells; complete medium, 6 days (FIG. 7C)
Procedure: Cells infected with scrambled (scr) gRNA were used as control. Equal amount of proteins was loaded in WedgeWell 6% gel and western blot was performed. ˜400 kDa BRCA2 band is indicated by arrow. GAPDH served as loading controls for western blot and qPCR. […] Genotypes are detected by PCR amplification followed by being treated with T7 endonuclease. Wt and mutant BRCA2 are indicated by red and green arrows, respectively. […] Equivalent volume of DMSO was used as placebo treatment. Cell growth was measured by MTT assay (see Example 1); SD, P-values determined by Student's t-test. *P<0.05, **P<0.01, ***P<0.001. FIGS. 7D-7E show the growth curve (FIG. 7D) and a bar graph (FIG. 7E) representing the cell growth of LNCaP BRCA2 CRISPR-edited and non-targeting control gRNA (scr) infected cells in complete medium supplemented with enzalutamide (ENZ; indicated concentration) for 7 days or charcoal-stripped medium (CSS) for 5 days, respectively. Equivalent volume of DMSO was used as placebo treatment. Cell growth was measured by crystal violet staining assay (see Example 1) (±SD); P-values determined by Student's t-test. […] Equivalent volume of DMSO was used as placebo treatment. Cell growth was measured by MTT assay (see Example 1) (±SD); P-values determined by Student's t-test. […] Total RNA was isolated, and BRCA2 mRNA was analyzed by qPCR. […] Cell growth was measured by MTT assay; SD, P-values determined by Student's t-test.
as §5, §1

SMILES: CNC(=O)c1ccc(N2C(=S)N(c3ccc(C#N)c(C(F)(F)F)c3)C(=O)C2(C)C)cc1F [enzalutamide]
- growth in complete media supplemented with enzalutamide [1]: resistance to androgen depletion
- growth in complete media supplemented with enzalutamide [2]: resistance to androgen depletion
- resistance to enzalutamide (cell growth) (BRCA2-null LNCaP cells [3]): relative resistance

SMILES: O=C(c1cc(Cc2n[nH]c(=O)c3ccccc23)ccc1F)N1CCN(C(=O)C2CC2)CC1 [olaparib]
- organoid growth (MTT) (MSK-PCa3 organoid): growth reduction
- organoid growth (MTT) (MSK-PCa1 organoid): growth reduction
- sensitivity (cell growth, MTT) (BRCA2-null RWPE1 cells): enhanced sensitivity
- inhibitory effect on cell growth (MTT) [4]: could not be detected
- cell growth inhibition (MTT) (LNCaP-BRCA2-RB1 cells): more cell growth inhibition

SMILES: CNCc1ccc(-c2[nH]c3cc(F)cc4c3c2CCNC4=O)cc1 [rucaparib]
- sensitivity (cell growth, MTT) (BRCA2-null LNCaP cells [5]): more sensitivity
